Assay [1] has as its system Duroc and Yorkshire pigs. Briefly: Boron supplementation and OC-associated lameness in swine (Example 1). In kind it is in vivo, pig. How it is done:
The basal diet consisted of commercial corn-soy diet containing 10 ppm boron.
Test diet group B was fed a basal diet plus 25 mg/kg boron as sodium borate decahydrate (borax). Test diet group A was fed a basal diet plus 25 mg/kg boron as sodium borate decahydrate (borax) and 250 mg/kg ascorbic acid.
Pigs were weighed at the beginning of the study, 4 weeks later and every 3 weeks until the end of the study. Animals were scored for soundness on a 5-point scale at each weighing. (Five-point scale: 1=no soundness defects; 2=minor soundness issues but still sound enough for retention as breeding animal; 3=not sound enough for retention for breeding but still marketable; 4=unsound, likely to be rejected at slaughter; 5=severely lame, requiring euthanasia for humane reasons.) Grading was done by the caretaker and the investigator at all weighing times. An experienced independent treatment-blind rater also evaluated the soundness of each animal and the ratings he provided were compared with the ratings of the caretaker and investigator by use of Cohen's Kappa test.
The animals were housed in a modern curtain sided barn with deep straw bedding, with ad libitum access to feed and water. Waterers and feeders were on a concrete pad but the remainder of the flooring was deep straw over a ground limestone and sand base. Floor space allowances exceeded the recommendations of the Guide for the Care and Use of Agricultural Animals in Agricultural Research and Teaching, First Revised Edition, 1999. Federation of Animal Science Societies. Savoy, Ill.
The basal diet (no boron supplemented) was analysed and found to contain boron at the rate of 10 ppm which is typical for a corn-soybean meal based diet.
At the end of the study the pigs were transported to a laboratory where they were euthanized and necropsied. Six pigs in each of group B and group A were put on the control diet for 7 days at the end of the study.
At necropsy, samples of liver, heart, kidney, fat, skeletal muscle, proximal tibia, blood, and the rostral snout were retained and frozen at −40° C. prior to chemical analysis. All joints of the axial skeleton were evaluated for the presence of gross lesions of osteochondrosis and graded on a 5 point scale. (5-point scale: 1=no gross abnormalities; 2=minor imperfections in articular conformation or articular reddening present but no cartilage erosions; 3=cartilage intact but surface irregularities of the cartilage are present; 4=fissuring or erosion of articular cartilage is obvious; 5=full thickness cartilage lesions or cartilage flaps, osteochondritis dissecans obviously present).
The proximal femur (femoral head) and articular surfaces and growth plates associated with the stifle, hock, shoulder, elbow and carpus were sectioned with a band saw and approx. 0.5 to 1.0 cm sections fixed in formalin. […]
Mean joint lesion scores, growth rate and soundness scores by treatment and by factors boron and ascorbate were compared using an analysis of variance and t-test as appropriate. Soundness scores were dichotomised into binary categorical variables for lameness (soundness score>2) and for absence of defects (soundness<2), and the binary variables analysed by chi-square and logistic regression.
Tissue specimens stained with H&E were examined microscopically for the presence of lesions of osteochondrosis. […] Each tissue section was scored by a treatment-blind board-certified pathologist. […]

In assay [2] the test system is sows and their litters. Put plainly: Sow and litter trial in a commercial swine operation during a PRRSV outbreak. In kind it is in vivo. Particulars: sows given 1 mg boron per pound BW per day. How it is done:
To test the effect of boron on sows and their litters, a trial was established in a large commercial swine operation during an outbreak of porcine viral reproductive and respiratory disease (PRRSV). Boron was administered orally to a group of 51 sows individually housed in crates at the rate of 1 mg boron per pound BW per day beginning 1 week prior to farrowing and continuing until the piglets were weaned at 14 days of age. […] Boron treatment was supplied as a single daily dosing and was discontinued at weaning. All sows were fed a standard commercial sow diet.

Assay [3] relates to pig cartilage. Briefly: Glycosaminoglycan study: sGAG in articular cartilage plugs of hock and elbow joints. Format: in vivo. Particulars: pigs fed 50 ppm boron. How it is done:
Hock joints and elbow joints were obtained at necropsy from pigs in two feeding groups: one group having been fed a commercial ration supplemented with 50 mg B/kg feed and the other being fed only the standard commercial pig ration.
Cartilage plugs were harvested from the articular surfaces of 40 hock and elbow joints using a #5 (10.5 mm) cork borer. The samples were papain digested and analyzed for concentration of sulfated glycosaminoglycan (sGAG) using a spectrophotometric microplate analysis procedure adapted from Farndale, et al (1986), using a chondrotin sulfate standard. This method measures total sulfated glycosaminoglycan, most of which is chondrotin sulfate and keratan sulfate components of aggrecan. Aggrecan is the large aggregating proteoglycan of cartilage responsible for creating and maintaining the osmotic pressure of cartilage. Quanititation of sGAG concentration thus provides a measure of the weight-bearing and anti-friction properties of cartilage and is a measure of cartilage quality and durability.

Assay [4] concerns pigs of about 100 kg body weight. Briefly: 3-NPB study in pigs with or without supplemental boron.
Procedure: The pigs were evaluated for lameness daily and euthanatized on day 13 and the joints and other organs were examined.
The test system of assay [5] is crossbred pigs. Put plainly: 28-day feeding trial: phosphorus digestibility and excretion, feed conversion. Format: in vivo, pig. Particulars: 50 ppm Added B; 28 days; N 12 pens. Here is the method:
Pigs were randomly allocated to 24 pens of 6 pigs per pen in a thermoneutral controlled environment barn with steel grid flooring. Each pen was equipped with a single-hole feeder. Water was available free-choice from a nipple drinker. […] Feces were collected on the last 3 days of the study from each pen and a pooled aliquot was dried and submitted for chemical analysis. Yttrium oxide was added to the diet at 0.05% and served as a marker for phosphorus digestibility. Pig growth and feed consumption was measured at the end of the study with the pen as the experimental unit. Data was analyzed for effects of boron and calcium by univariate and multivariate analysis of variance and t-tests.

Assay [6] concerns turkeys. Briefly: Turkey Study 3: growth, lameness scoring, femur breaking force, cartilage indenter test. In kind it is in vivo. Conditions: for leg weakness scores (mean): 5 point scale, control 3.0; for growth response (bird weight) / growth rates: groups with boron versus groups without boron. The source says: 250 turkeys were selected at random at week 11 and divided into 5 treatment groups: 1) control, 2) ascorbate only “(VC”), 3) boron only (“B”), 4), boron and ascorbate (“B+C”), and 5) ½ rate boron and full rate ascorbate (“LoB+C”). Full rates of both boron and ascorbate were as described for study 1. At 17 weeks, all birds were weighed, scored for lameness/mobility/gait abnormality using the five point scale used in study 1, and sacrificed. The femur was dissected from each leg of each bird and subjected to an ultimate breaking force analysis. Cartilage at the femoral distal condyle was subjected to an indenter test.
For the lameness/mobility/gait abnormality scoring, three graders were used. Two of the graders were “blind” graders unaware of each turkey's grouping. The third grader was a “biased” grader aware of each turkey's grouping. Partial grading on the 5 point scale described above was allowed. FIG. 11 presents the cross-tabulation of the graders' results.

For assay [7], the system named is sows, piglets and pigs on farms. In kind it is in vivo. Conditions: sows on 1 mg/kg body weight boron as boric acid; usual mortality for this farm about 5 to 7%. Here is the method:
Boron was added to the diet of sows at 1 mg/kg body weight as boric acid. […] Among a group of 95 piglets the birth to weaning mortality was 2 piglets. The usual mortality for this farm was about 5 to 7%. These piglets remained on boron 50 ppm plus ascorbate 125 ppm. One pig was euthanized and examined at a weight of about 85 pounds. […] All bones of the appendicular skeleton were sectioned on the band saw.
An Iowa farm treated a group of about 100 pigs with 50 ppm boron as boric acid. None of these pigs developed any signs of lameness or unsoundness. The farmer reported that these pigs are the most sound he has raised. The estimated previous lameness/unsoundness rate was about 25 to 30%, and zero in the test group. […] The absence of lameness and hock swelling was observed. Two pigs with hock swelling were euthanised from among the younger and older pigs not treated with boric acid. […] An older pig of about 250 pounds body weight with severe lameness in the right hock was euthanised.

Where [8] appears, read: boron supplementation 50 ppm, 3-NPB none.

Entries after “also recorded” stand apart in the source; their conditions may differ.

As for `[B]` [Boron], the “TBlue staining intensity (semi-quantitative measure of sGAG content of cartilage)” value in assay [1] (boron supplemented group vs unsupplemented pigs) was “consistently higher”. Besides, the “joint condition vs basal diet with no supplemental boron (FIG. 1)” value in assay [1] (growing swine supplemented with boron) is on record as “healthier joints”. Also, in assay [1] (pigs receiving 25 ppm boron, microscopic sections of articular cartilage and growth plate), the “Growth plate lesions associated with widening, found in % of tissues” value is 19%. Moreover, the “Articular cartilage lesions (necrosis, hemorrhage, infarction, or streaks), found in % of tissues” value in assay [1] (pigs receiving 25 ppm supplemental B, microscopic sections) was 4%. Moreover, the “occurrence of OC in pigs” value in assay [1] (supplemental boron at 25 ppm to 50 ppm, FIGS. 1, 3 and 4) is recorded as “significant reduction”. Also, in assay [2], the “litter size at birth” value is “no effects” and the piglet birth weight result is given as “no effects”. Besides, the “sGAG concentration (dry matter basis) in the cartilage” value in assay [3] was 11050 ng/g. In assay [4] (setting [8]), the “Clinical Lameness Score: Normal (count of pigs)” value is 5 and the “Clinical Lameness Score: Visible Lameness (count of pigs)” value was 0. Further, the “prevalence and severity of osteochondrosis lesions (shoulder, stifle, hock and elbow joints)” value in assay [4] (supplemental boron and no 3-NPB) was “lowest prevalence of lesions and the lowest severity”. In addition, in assay [5], the “Feed Conversion Ratio (feed/gain)” value was determined as 2.32. In assay [6], the “leg weakness scores (mean)” value amounted to 2.3. In assay [6] (boron alone, 3-point bending test of the femur), the “improvement of bone strength as compared with the control” value amounted to 7.8%. In addition, in assay [6] (week 11 to 17), the “effect on femur break force (main effects analysis, FIG. 26)” value is on record as “large effect” and the “growth response (bird weight) / growth rates” value is on record as “improved”. Moreover, the “growth response (bird weight) / growth rates” value in assay [6] (week 11 to 17, listed as B) is recorded as “significant”.

For the compound `O=C1O[C@H]([C@@H](O)CO)C(O)=C1O` [ascorbate, ascorbic acid, reference compound], the “leg weakness scores (mean)” value in assay [6] is “did not significantly improve”. In addition, the “bone strength as measured by 3-point bending test” value in assay [6] (administered in drinking water) is “slightly improved bone strength”. For the same compound, in assay [6] (week 11 to 17), the “cartilage strength by indenter test at the femoral distal condyle (FIG. 27)” value was “statistically significant effect; also recorded: improved cartilage strength” and the “effect on femur break force (main effects analysis, FIG. 26)” value is “lesser effect”.

`OB(O)O` [boric acid]: in assay [7], the “birth to weaning mortality among a group of 95 piglets” value came to 2 piglets.

For the origin of these results see patent US20100034901A1, “ANIMAL FEED COMPOSITIONS” (priority 2006, published 2010).
